Assay results reported in the NIST ThermoML archive (doi:10.1016/j.jct.2018.09.027).

Assay: molar heat capacity at constant pressure
Settings: 100 kPa, Crystal, DSC

O=C(O)c1cc(O)c(O)c(O)c1 [3,4,5-trihydroxybenzoic acid]
Settings	molar heat capacity at constant pressure [J/K/mol]
263.15 K	178.8
264.15 K	179.31
265.15 K	179.82
266.15 K	180.5
267.15 K	181.18
268.15 K	181.86
269.15 K	182.54
270.15 K	183.05
271.15 K	183.73
272.15 K	184.41
273.15 K	184.92
274.15 K	185.77
275.15 K	185.6
276.15 K	186.96
277.15 K	187.3
278.15 K	188.15
279.15 K	188.49
280.15 K	189
281.15 K	189.34
282.15 K	189.85
283.15 K	190.36
284.15 K	191.21
285.15 K	191.55
286.15 K	192.24
287.15 K	193.09
288.15 K	193.6
289.15 K	194.28
290.15 K	194.79
291.15 K	195.64
292.15 K	196.32
293.15 K	197
294.15 K	197.51
295.15 K	198.19
296.15 K	198.7
297.15 K	199.38
298.15 K	199.55
299.15 K	200.06
300.15 K	200.57
301.15 K	201.25
302.15 K	201.76
303.15 K	202.44
304.15 K	203.12
305.15 K	203.8
306.15 K	204.31
307.15 K	204.65
308.15 K	205.33
309.15 K	206.18
310.15 K	206.7
311.15 K	207.04
312.15 K	207.38
313.15 K	208.23
314.15 K	208.91
315.15 K	209.08
316.15 K	209.76
317.15 K	210.61
318.15 K	211.12
319.15 K	211.46
320.15 K	211.8
321.15 K	212.14
322.15 K	212.99
323.15 K	211.97
324.15 K	212.22
325.15 K	212.9
326.15 K	213.59
327.15 K	214.27
328.15 K	214.61
329.15 K	215.09
330.15 K	215.6
331.15 K	216.11
332.15 K	216.39
333.15 K	216.9
334.15 K	217.47
335.15 K	217.92
336.15 K	217.16
337.15 K	217.71
338.15 K	218.35
339.15 K	218.99
340.15 K	219.58
341.15 K	220.09
342.15 K	220.69
343.15 K	221.58
344.15 K	220.47
345.15 K	220.64
346.15 K	221.55
347.15 K	222.29
348.15 K	222.74
349.15 K	223.31
350.15 K	223.76
351.15 K	224.44
352.15 K	225.58
353.15 K	224.69
354.15 K	225.11
355.15 K	225.75
356.15 K	226.47
357.15 K	226.9
358.15 K	227.28
359.15 K	227.92
360.15 K	228.68
361.15 K	229.15
362.15 K	229.7
363.15 K	229.83
364.15 K	230.21
365.15 K	230.81
366.15 K	231.19
367.15 K	233.29
368.15 K	233.91
369.15 K	234.54
370.15 K	234.94
371.15 K	235.6
372.15 K	236.24
373.15 K	236.91
374.15 K	237.55
375.15 K	238.16
376.15 K	238.86
377.15 K	239.45
378.15 K	240.16
379.15 K	240.81
380.15 K	241.44
381.15 K	242.11
382.15 K	242.78
383.15 K	243.42
384.15 K	244.06
385.15 K	244.7
386.15 K	245.37
387.15 K	246.02
388.15 K	246.65
389.15 K	247.32
390.15 K	248.01
391.15 K	248.58
392.15 K	249.14
393.15 K	249.71
394.15 K	250.27
395.15 K	250.84
396.15 K	251.4
397.15 K	251.97
398.15 K	252.44
399.15 K	253.11
400.15 K	253.68
401.15 K	254.24
402.15 K	254.81
403.15 K	255.1
404.15 K	255.93
405.15 K	256.5
406.15 K	257.08
407.15 K	257.65
408.15 K	258.22
409.15 K	258.78
410.15 K	259.34
411.15 K	259.92
412.15 K	260.74
413.15 K	261.25
414.15 K	261.59
415.15 K	261.81
416.15 K	262.27
417.15 K	262.78
418.15 K	263.53
419.15 K	264.31
420.15 K	265.03
421.15 K	266.54
422.15 K	266.57
423.15 K	267.3
424.15 K	268.08
425.15 K	268.84
426.15 K	269.59
427.15 K	270.33
428.15 K	271.11
429.15 K	271.85
430.15 K	272.62
431.15 K	273.38
432.15 K	274.32
433.15 K	274.91
434.15 K	275.59
435.15 K	275.85
436.15 K	276.19
437.15 K	276.7
438.15 K	277.38
439.15 K	277.72
440.15 K	278.23
441.15 K	278.83
442.15 K	279.51
443.15 K	280.61
444.15 K	280.87
445.15 K	281.12
446.15 K	281.63
447.15 K	282.23
448.15 K	283.16
449.15 K	283.84
450.15 K	284.18
451.15 K	285.04
452.15 K	286.14
453.15 K	286.82
454.15 K	287.67
455.15 K	288.44
456.15 K	289.03
457.15 K	289.8
458.15 K	290.56
459.15 K	291.24
460.15 K	292.18
461.15 K	292.86
462.15 K	293.2
463.15 K	293.8
464.15 K	294.99
465.15 K	295.67
466.15 K	296.35
467.15 K	297.03
468.15 K	297.96
469.15 K	298.9
470.15 K	300.18
471.15 K	301.03
